These are literature values, as cited in patent publication US9034383B2 (NanoRx, Inc., priority 2010, dated 2015).

One data set concerns rats. As to conditions: exercise-trained rats run to exhaustion on a treadmill; Kim et al. 2003.
Another data set has as its system angiogenesis. As to conditions: Thippeswamy 2008.

For `CCCCCCCCCCCCCCCCCCCCCCCCCCCCO` [pure octacosanol, octacosanol], the “neurologic and pulmonary function” value (amyotrophic lateral sclerosis patients, double-blind placebo-controlled crossover, Fallat 1986) is “did not show any benefits”. In addition, the “neutral sterol and bile acid concentration in feces” value (humans, Jahreis 2008) is reported as “decreases”. Further, the ergogenic properties result with rats is “sparing of muscle glycogen stores and increasing the oxidative capacity in the muscle”. Moreover, the angiogenesis entry in the data set with angiogenesis is recorded as “inhibits angiogenesis”.
